Experimental data taken from patent US20260097091A1, “ADMINISTRATION OF GLUTATHIONE TRISULFIDE TO AMELIORATE PERIPHERAL NEUROPATHY” (The General Hospital Corporation, priority 2022, published 2026).

Key:
primary cortical neurons = test: Dihydroethidium (DHE) superoxide assay in primary cortical neurons; format: cell-based, mice
Method: Primary cortical neurons were prepared from the cortex of mice on embryonic day 15, as described previously. In brief, the embryo's cortex was isolated in Hanks' balanced salt solution and centrifuged at 176×g (1000 rpm) for 3 minutes. After aspirating the solution, cells were incubated with 0.25% trypsin for 15 minutes and seeded 20,000/well in a 96-well plate coated with the poly-D-lysin (Gibco, Cat No. A3890401). They were incubated in Neurobasal medium (Gibco, Cat No. 21103049) with 2% B27 supplement (Gibco, Cat No. 10889038), 1% penicillin/streptomycin, and 1% Glutamax (Gibco, Cat No. 35050061) until day 11 when they were used for experiments.
To examine whether GSSSG reduces ROS generated by paclitaxel, we conducted Dihydroethidium (DHE) assay (Abcam, Cat No. ab236206) that is sensitive to superoxide. The experiment was done according to protocol provided by the manufacturer. Briefly, primary cortical neurons were incubated in DHE reagent with or without 10 and 30 μM of GSSSG for 30 minutes. After incubating, 100 nM of paclitaxel was administered, and cells were incubated for one hour. Fluorescence of DHE was measured at 490 nm of excitation and 585 nm of emission wavelength.

mouse model of PIPN = test: von Frey test of mechanical allodynia in mouse model of paclitaxel-induced peripheral neuropathy; format: in vivo, mice (C57BL/6J)
Description: All animal protocols were approved by the Massachusetts General Hospital Institutional Animal Care and Use Committee. Animals were cared for in accordance with the guidelines established by the NIH and the International Association for the Study of Pain [16]. Male C57BL/6J mice (6-7 weeks old) were purchased from the Jackson Laboratory (Bar Harbor, ME, USA). The mice were housed in a 12-hour shift light-control environment from 7 am to […] with ad libitum access to food and water in our animal facility until the time of experiments.
Paclitaxel (Sigma-Aldrich) was dissolved with ethanol and cremophor (1:1) and diluted with normal saline (1:4). Peripheral neuropathy was induced in mice by intraperitoneal (i.p.) administration of 4 mg/kg paclitaxel every other day for a total of 4 injections (cumulative dose of 16 mg/kg), according to a previously described protocol. A stable, crystallized form of GSSSG was produced and provided by Kyowa Hakko Bio CO., LTD. GSSSG was pulverized and mixed in 0.5% methylcellulose. […] The dose of GSSSG was determined based on pilot studies. […]
Mechanical withdrawal thresholds were measured by the manual von Frey filament test to assess mechanical allodynia. […] The 50% threshold of a paw withdrawal response was calculated by the Up-down Reader based on the up and down method. […]

| Structure (SMILES) | intracellular levels of superoxide (DHE) (primary cortical neurons; 100 nM paclitaxel for one hour, vs control) | paw withdrawal threshold (von Frey test) (mouse model of PIPN; paclitaxel 4 mg/kg i.p. every other day, 4 injections, week 1 through week 4, vs control mice) | paclitaxel-induced increase of intracellular superoxide (DHE) (primary cortical neurons; 10 μM GSSSG co-incubation with 100 nM paclitaxel, vs paclitaxel) | mechanical allodynia (von Frey test) (mouse model of PIPN; GSSSG 50 mg/kg/day oral for 28 days in paclitaxel-treated mice, vs paclitaxel alone) |
| --- | --- | --- | --- | --- |
| CC(=O)O[C@H]1C(=O)[C@@]2(C)[C@H]([C@H](OC(=O)c3ccccc3)[C@]3(O)C[C@H](OC(=O)[C@H](O)[C@@H](NC(=O)c4ccccc4)c4ccccc4)C(C)=C1C3(C)C)[C@]1(OC(C)=O)CO[C@@H]1C[C@@H]2O [paclitaxel, Paclitaxel, reference compound] | increased | significantly lower paw withdrawal threshold than control mice |  |  |
| N[C@@H](CCC(=O)N[C@@H](CSSSC[C@H](NC(=O)CC[C@H](N)C(=O)O)C(=O)NCC(=O)O)C(=O)NCC(=O)O)C(=O)O [GSSSG, glutathione trisulfide] |  |  | prevented the paclitaxel-induced increase of intracellular superoxide | mitigated mechanical allodynia over the experimental period |
